According to ChEMBL document CHEMBL1201862, “PubChem BioAssay data set” (2004):
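The compound was tested at five concentrations on cells cultured in 96-well plates, with a 48-hour exposure period. GI50 marks 50% less growth.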 Calls of active or inactive are those of the source. No stated cut-off is given here; in the data, active = GI50 up to about 1.1 µM and inactive = higher.

Key:
Assay in all cases: NCI-60 cell line screen, 48 h
786-0 = system: 786-0
A549 = system: A549
DU-145 = system: DU-145
EKVX = system: EKVX
HOP-92 = system: HOP-92
K562 = system: K562
KM12 = system: KM12
LOX IMVI = system: LOX IMVI
M14 = system: M14
NCI-H23 = system: NCI-H23
NCI-H460 = system: NCI-H460
OVCAR-8 = system: OVCAR-8
PC-3 = system: PC-3
SK-MEL-5 = system: SK-MEL-5
U-251 = system: U-251
UACC-257 = system: UACC-257
UACC-62 = system: UACC-62
COLO 205 = system: COLO 205
SF-539 = system: SF-539

Measured: GI50

O=C(O)c1cc(O)nc(SCc2ccccc2)n1
inactive: 786-0 > 100 µM | A549 > 100 µM | DU-145 > 100 µM | EKVX > 100 µM | HOP-92 > 100 µM | K562 > 100 µM | KM12 > 100 µM | LOX IMVI > 100 µM | M14 > 100 µM | NCI-H23 > 100 µM | NCI-H460 > 100 µM | OVCAR-8 > 100 µM | PC-3 > 100 µM | SK-MEL-5 > 100 µM | U-251 > 100 µM | UACC-257 > 100 µM | UACC-62 > 100 µM

N#CC(C#N)=CNC(=S)c1ccncc1
inactive: 786-0 > 100 µM | A549 > 100 µM | COLO 205 45.1 µM | DU-145 > 100 µM | EKVX > 100 µM | K562 39.1 µM | KM12 > 100 µM | LOX IMVI > 100 µM | M14 > 100 µM | NCI-H23 > 100 µM | NCI-H460 > 100 µM | OVCAR-8 > 100 µM | PC-3 > 100 µM | SF-539 23.1 µM | SK-MEL-5 48.4 µM | U-251 > 100 µM | UACC-257 > 100 µM | UACC-62 > 100 µM

COc1ccc(CCNC(=O)CCCCCO)cc1OC
inactive: 786-0 > 100 µM | A549 > 100 µM | COLO 205 > 100 µM | DU-145 > 100 µM | EKVX > 100 µM | HOP-92 > 100 µM | K562 > 100 µM | KM12 > 100 µM | M14 > 100 µM | NCI-H23 > 100 µM | NCI-H460 > 100 µM | OVCAR-8 > 100 µM | PC-3 > 100 µM | SF-539 > 100 µM | SK-MEL-5 > 100 µM | U-251 > 100 µM | UACC-257 > 100 µM | UACC-62 > 100 µM

COc1ccc2c(c1)N=C1CSC(c3ccccc3Cl)N1C2 (stereo not given)
inactive: 786-0 11.5 µM | A549 10.4 µM | COLO 205 14.9 µM | EKVX 7.98 µM | HOP-92 18.3 µM | K562 7.82 µM | KM12 4.6 µM | LOX IMVI 6.55 µM | M14 13 µM | NCI-H23 17.9 µM | NCI-H460 3.12 µM | OVCAR-8 16.1 µM | PC-3 11.5 µM | SF-539 5.48 µM | SK-MEL-5 17.1 µM | U-251 10.8 µM | UACC-257 16.3 µM | UACC-62 4.08 µM

CC(C)(C)NC(NC(C)(C)C)=C(C(Cl)=C(Cl)Cl)[N+](=O)[O-]
inactive: 786-0 > 100 µM | A549 > 100 µM | COLO 205 > 100 µM | DU-145 > 100 µM | EKVX > 100 µM | K562 > 100 µM | KM12 > 100 µM | LOX IMVI > 100 µM | M14 > 100 µM | NCI-H23 > 100 µM | NCI-H460 > 100 µM | OVCAR-8 > 100 µM | PC-3 > 100 µM | SF-539 > 100 µM | SK-MEL-5 > 100 µM | U-251 > 100 µM | UACC-257 67.6 µM | UACC-62 > 100 µM

NC(CSCc1ccc(I)cc1)C(=O)O (stereo not given)
inactive: 786-0 > 100 µM | A549 > 100 µM | COLO 205 > 100 µM | DU-145 > 100 µM | EKVX > 100 µM | HOP-92 > 100 µM | K562 > 100 µM | KM12 > 100 µM | LOX IMVI > 100 µM | M14 > 100 µM | NCI-H23 > 100 µM | NCI-H460 > 100 µM | OVCAR-8 > 100 µM | PC-3 > 100 µM | SK-MEL-5 > 100 µM | U-251 > 100 µM | UACC-257 > 100 µM | UACC-62 > 100 µM

CC(=O)n1cc(OP(=O)(Oc2ccccc2)Oc2ccccc2)c2ccccc21
inactive: 786-0 32.1 µM | A549 32.4 µM | COLO 205 13.2 µM | DU-145 72.3 µM | K562 23.2 µM | KM12 35.6 µM | LOX IMVI 23.2 µM | M14 18.9 µM | NCI-H23 33.3 µM | NCI-H460 22.6 µM | OVCAR-8 39.7 µM | PC-3 10.3 µM | SF-539 15.8 µM | SK-MEL-5 19 µM | U-251 33.5 µM | UACC-257 25.7 µM | UACC-62 16.9 µM

Cc1ccsc1C(=O)C(CC(=O)c1cccs1)c1ccsc1 (stereo not given)
inactive: 786-0 > 100 µM | A549 > 100 µM | COLO 205 > 100 µM | DU-145 > 100 µM | EKVX 79.6 µM | HOP-92 > 100 µM | K562 > 100 µM | KM12 > 100 µM | M14 > 100 µM | NCI-H23 > 100 µM | NCI-H460 33.5 µM | OVCAR-8 > 100 µM | PC-3 45.8 µM | SF-539 > 100 µM | SK-MEL-5 28.2 µM | U-251 > 100 µM | UACC-257 > 100 µM | UACC-62 > 10 µM

CCc1nn(CN2CCN(C)CC2)c(=S)n1/N=C\c1ccc(-c2ccc([N+](=O)[O-])cc2)o1
inactive: 786-0 29.9 µM | A549 36.2 µM | DU-145 50.2 µM | EKVX 43.4 µM | HOP-92 30.4 µM | K562 40 µM | KM12 > 100 µM | LOX IMVI 59 µM | M14 80.4 µM | NCI-H23 34.9 µM | NCI-H460 57.4 µM | OVCAR-8 35.5 µM | PC-3 54.3 µM | SK-MEL-5 40.5 µM | U-251 43.6 µM | UACC-257 57.7 µM | UACC-62 39 µM

CCCCCCCCCCCCCCCC(=O)OCC(COP(=O)(O)OCCNC(=O)CCSSc1ccccn1)OC(=O)CCCCCCCCCCCCCCC (stereo not given)
inactive: 786-0 > 100 µM | A549 > 100 µM | COLO 205 > 100 µM | DU-145 > 100 µM | EKVX > 100 µM | HOP-92 > 100 µM | K562 > 100 µM | KM12 > 100 µM | M14 > 100 µM | NCI-H23 > 100 µM | NCI-H460 > 100 µM | OVCAR-8 > 100 µM | PC-3 > 100 µM | SF-539 > 100 µM | SK-MEL-5 > 100 µM | U-251 > 100 µM | UACC-257 > 100 µM | UACC-62 > 100 µM

Cc1cc(C)c(C(=O)/C(=C/c2ccccc2)c2ccccc2)c(C)c1
inactive: 786-0 56.2 µM | A549 38.8 µM | COLO 205 91.6 µM | EKVX 72.8 µM | HOP-92 32.8 µM | K562 36.3 µM | KM12 55.2 µM | M14 49.2 µM | NCI-H23 40 µM | NCI-H460 42.4 µM | OVCAR-8 46.5 µM | SF-539 57.5 µM | SK-MEL-5 > 100 µM | U-251 39.9 µM | UACC-257 28.4 µM | UACC-62 > 100 µM

CC12CC(=O)Nc3ccccc3N1C(c1ccccc1)=NO2 (stereo not given)
inactive: 786-0 > 100 µM | A549 > 100 µM | COLO 205 > 100 µM | DU-145 > 100 µM | EKVX > 100 µM | HOP-92 > 100 µM | K562 > 100 µM | KM12 > 100 µM | M14 > 100 µM | NCI-H23 > 100 µM | NCI-H460 > 100 µM | OVCAR-8 > 100 µM | PC-3 > 100 µM | SF-539 > 100 µM | SK-MEL-5 > 100 µM | U-251 > 100 µM | UACC-257 > 100 µM | UACC-62 > 100 µM

COc1ccc(OC)c(N2C(=O)/C(=C\c3ccccc3)SC2c2cc(OC)c(OC)c(OC)c2)c1 (stereo not given)
inactive: 786-0 > 96.6 µM | A549 > 85.7 µM | COLO 205 > 91.6 µM | DU-145 > 100 µM | EKVX > 83.6 µM | HOP-92 17.5 µM | K562 50.9 µM | KM12 61.5 µM | LOX IMVI > 100 µM | M14 > 100 µM | NCI-H23 > 80.5 µM | OVCAR-8 > 100 µM | PC-3 > 89.5 µM | SK-MEL-5 > 91.6 µM | U-251 > 100 µM | UACC-257 > 100 µM | UACC-62 4.06 µM

CCn1nc(-c2ccccc2)c2c1N(C)c1ccccc1-n1c(-c3ccccc3)nnc1-2
inactive: 786-0 16.3 µM | A549 13.3 µM | COLO 205 19.7 µM | DU-145 16.1 µM | HOP-92 16.3 µM | K562 17.1 µM | LOX IMVI 16.6 µM | M14 16 µM | NCI-H23 14 µM | NCI-H460 14.3 µM | OVCAR-8 20.9 µM | PC-3 13.2 µM | SF-539 22.5 µM | SK-MEL-5 9.25 µM | U-251 15 µM | UACC-62 12.8 µM

COc1ccc(-n2c(C)nc3ccc(NC4OC(CO)C(O)C(O)C4O)cc3c2=O)cc1 (stereo not given)
inactive: 786-0 > 100 µM | COLO 205 > 100 µM | DU-145 > 100 µM | EKVX > 100 µM | K562 > 100 µM | KM12 > 100 µM | LOX IMVI > 100 µM | NCI-H23 > 100 µM | NCI-H460 > 100 µM | OVCAR-8 > 100 µM | PC-3 > 100 µM | SK-MEL-5 > 100 µM | U-251 > 100 µM | UACC-257 > 100 µM | UACC-62 > 100 µM

COc1ccc(OC)c(CC(=O)c2ccc(O)c(C(=O)NCCc3ccc(F)cc3)c2)c1
inactive: 786-0 4.18 µM | A549 4.49 µM | COLO 205 16.9 µM | DU-145 1.73 µM | EKVX 7.13 µM | HOP-92 10.8 µM | K562 3.81 µM | KM12 3.42 µM | LOX IMVI 6.95 µM | M14 2.28 µM | NCI-H23 3.12 µM | NCI-H460 3.85 µM | OVCAR-8 4.23 µM | SK-MEL-5 1.73 µM | U-251 3.6 µM | UACC-257 10.5 µM
